# Values quoted from earlier work, collected in patent US20170140533A1, “SYSTEM AND METHOD FOR AUTOMATED DETECTION AND MONITORING OF DYSPLASIA AND ADMINISTRATION OF IMMUNOTHERAPY AND CHEMOTHERAPY” (VISIONGATE, INC., priority 2015, published 2017).
# What was measured:
# T cells = details: in vitro
# [1] = system: immune response in SSc patients
structure (smiles),measurement,setting,value
CC#CCC(C)[C@H](O)/C=C/[C@@H]1[C@H]2C/C(=C/CCCC(=O)O)C[C@H]2C[C@H]1O (stereo partly drawn) [Iloprost],RANKL,T cells,increased
same,T cell and TNF alpha production,T cells,reduces
same,IFN gamma production,[1]; SSc patients,No effect
same,T regulatory cells number,[1]; SSc patients,reduces
same,serum IL-2,"[1]; SSc patients, serum",increases
same,T regulatory cells activity,[1]; after immune stimulation,increases
same,persistence of serum IL-2 increase after the last infusion,[1]; after the last infusion,28 days
same,RANKL,[1]; in vivo,increased
same,T cell and TNF alpha production,"[1]; in vivo, SSc patients",reduces
